# “Also recorded” adds a separate entry of the source.
# Legend:
# [1] = target: T1, FPR2/ALX-transfected HL60 (Homo sapiens, UniProt P25090); assay: Ca2+ flux in FPR2/ALX-transfected HL60 cells; format: cell-based
# T1 sequence (P25090 1-351): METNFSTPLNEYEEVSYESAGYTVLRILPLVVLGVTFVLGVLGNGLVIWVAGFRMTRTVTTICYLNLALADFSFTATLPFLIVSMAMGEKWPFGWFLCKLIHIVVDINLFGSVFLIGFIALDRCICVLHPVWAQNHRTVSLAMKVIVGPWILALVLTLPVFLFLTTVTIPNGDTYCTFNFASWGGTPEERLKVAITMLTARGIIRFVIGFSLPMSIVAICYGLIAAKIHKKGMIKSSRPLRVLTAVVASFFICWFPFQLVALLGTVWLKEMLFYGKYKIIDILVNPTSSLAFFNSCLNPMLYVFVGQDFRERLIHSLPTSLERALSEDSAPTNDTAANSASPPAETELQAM
# human neutrophils [2] = target: T2, human neutrophils (Homo sapiens, UniProt P25090); assay: Ca2+ flux in human neutrophils; format: cell-based; conditions: 37°C; for pEC50, calcium ion flux: human neutrophils, Fluo-3-AM, flow cytometry, means +/- SD of at least three independent experiments, nonlinear regression, 11-18 points
# T2 sequence (P25090 1-351): T1 sequence (P25090 1-351)
# human neutrophils [3] = target: T2, human neutrophils; assay: Neutrophil chemotaxis; format: cell-based; conditions: 3-µm trans-well filter, fluorescence-labeled neutrophils
# [4] = system: peritoneal granulocyte infiltration, S. aureus USA300; assay: Mouse peritonitis model, S. aureus USA300; format: in vivo; conditions: WRW4 prior to infection, two-hours infection period
# mouse neutrophils = assay: Ca2+ flux in mouse neutrophils; format: cell-based; conditions: calcium flux
# human FPR2/ALX = conditions: ref Karlsson et al., 2006; Onnheim et al., 2008; cited from earlier work
# [5] = system: mouse FPR paralog (Fpr-rs2); conditions: ref Karlsson et al., 2006; Onnheim et al., 2008; cited from earlier work
# FPR1-transfected HL60 = assay: Ca2+ flux in FPR1-transfected HL60 cells; format: cell-based, human; conditions: 62.5-500 nM formylated PSMs, 2 µM non-formylated PSMs; fMLF 20 nM
# [6] = system: mice, cows, pigs, dogs, and cats; conditions: ref Styrt, 1989; cited from earlier work
molecule,measurement,setting,value
"CSCC[C@H](N)C(=O)N[C@@H](CCC(=O)O)C(=O)N[C@@H](Cc1ccccc1)C(=O)N[C@H](C(=O)N[C@@H](C)C(=O)N[C@@H](CCCCN)C(=O)N[C@@H](CC(C)C)C(=O)N[C@@H](Cc1ccccc1)C(=O)N[C@@H](CCCCN)C(=O)N[C@@H](Cc1ccccc1)C(=O)N[C@@H](Cc1ccccc1)C(=O)N[C@@H](CCCCN)C(=O)N[C@@H](CC(=O)O)C(=O)N[C@@H](CC(C)C)C(=O)N[C@@H](CC(C)C)C(=O)NCC(=O)N[C@@H](CCCCN)C(=O)N[C@@H](Cc1ccccc1)C(=O)N[C@@H](CC(C)C)C(=O)NCC(=O)N[C@@H](CC(N)=O)C(=O)N[C@@H](CC(N)=O)C(=O)O)C(C)C [PSMα3, non-formylated]",EC50,[1],257 nM
same,"pEC50, calcium ion flux",human neutrophils [2],5.19 ± 0.24
"CC[C@H](C)[C@H](NC(=O)[C@H](Cc1c[nH]c2ccccc12)NC(=O)[C@H](CCCCN)NC(=O)[C@@H](NC(=O)[C@H](CC(C)C)NC(=O)[C@H](CC(=O)O)NC(=O)[C@H](CO)NC(=O)[C@@H](NC(=O)[C@@H](NC(=O)[C@H](CO)NC(=O)[C@@H](NC(=O)[C@@H](NC(=O)[C@H](CC(=O)O)NC(=O)[C@H](CCC(N)=O)NC(=O)[C@H](C)NC(=O)[C@@H](N)CCSC)[C@@H](C)CC)[C@@H](C)CC)[C@@H](C)O)[C@@H](C)CC)C(C)C)C(=O)N[C@H](C(=O)N[C@@H](CC(=O)O)C(=O)N[C@H](C(=O)N[C@H](C(=O)N[C@@H](CC(N)=O)C(=O)N[C@@H](CCCCN)C(=O)N[C@@H](Cc1ccccc1)C(=O)N[C@H](C(=O)N[C@@H](CCCCN)C(=O)N[C@@H](CCCCN)C(=O)O)[C@@H](C)O)C(C)C)[C@@H](C)O)[C@@H](C)CC [δ-Toxin, non-formylated]",EC50,[1],479 nM
same,"pEC50, calcium ion flux",human neutrophils [2],5.20 ± 0.14
LESIFRSLLFRVM-NH2 [MMK1],calcium flux activation of FPR2/ALX-transfected HL60,"[1]; 62.5 nM (formylated PSMα3), 125 nM (formylated PSMα2), 250 nM (formylated δ-toxin, PSM-mec), 500 nM (formylated PSMsα1, α4, β1, β2), 2 µM (non-formylated PSMs), MMK1 10 nM",responded
"MDFTGVITSIIDLIKTCIQAFG [PSM-mec, formylated]",chemotaxis of human neutrophils,human neutrophils [3],induce chemotaxis
WRWWWW-NH2 [WRW4],effect on numbers of live bacteria,[4],no impact
same,effect of WRW4 on mouse neutrophil stimulation by fMLF,mouse neutrophils; fMLF 500 nM,not affected
same,effect of WRW4 on mouse neutrophil stimulation by MMK1 and PSMs,"mouse neutrophils; formylated PSMα3 250 nM, PSMα2 12.5 nM, δ-toxin 50 nM, MMK1 500 nM",potent antagonistic effect; also recorded: blocks
same,inhibition of human FPR2/ALX,human FPR2/ALX,an inhibitor of human FPR2/ALX
same,inhibition of mouse FPR paralog Fpr-rs2,[5],inhibitor
fMLF,calcium flux activation of FPR1-transfected HL60,FPR1-transfected HL60,responded
same,response to fMLF,[6],hardly respond
pertussis toxin,effect of pertussis toxin on PSM-induced calcium flux,"human neutrophils [2]; PTX 1 µg/ml, three hours, 5% CO2",sensitive; also recorded: blocked

# Reference: publication PMC3417054 (Cell host & microbe, 2010)
